The target in one assay is T1, JAK1 (Homo sapiens, UniProt P23458).
T1 construct: purchased Eurofins
As to the kind of experiment: In vitro kinase activity experiment, JAK1. The class given is biochemical. As to the method: Buffer solution ([…], pH 7.0, 0.2 mm EDTA, 10 mM mncl2), kinase to be tested, substrate of kinase to be tested, 10 mM magnesium acetate and γ33P-ATP solution, and compounds with different concentrations were added to a reaction tube in turn, then MgATP was added to initiate the enzyme reaction process, and incubated at room temperature for 40 min. Then, the reaction was terminated with 5 μl of […], and 10 μl of the reaction solution was titrated onto the Filtermat A membrane, washed with 75 mM phosphate solution for three times, each time for 5 min., and then washed with methanol once. Finally, the Filtermat A membrane was dried and the scintillation count was carried out.

A further assay has as its target T2, JAK2 (Homo sapiens, UniProt O60674).
T2 construct: purchased Eurofins
The assay can be described thus: In vitro kinase activity experiment, JAK2. The format is biochemical. Particulars: for Kinase activity @ 500 nM (%) JAK2: inhibition rate of enzyme at 500 nM, measured by Eurofins. In outline: (§1)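 Reactions began on MgATP addition after the kinase, substrate, γ33P-ATP, 10 mM magnesium acetate and compound series were mixed in MOPS buffer pH 7.0 with EDTA and MnCl2. After 40 min at room temperature, phosphate quench, filter-mat capture and washing, incorporated 33P was measured by scintillation counting.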

The next assay addresses T3, FLT3 (Homo sapiens, UniProt P36888).
T3 construct: purchased Eurofins
T3 sequence (P36888 27-993): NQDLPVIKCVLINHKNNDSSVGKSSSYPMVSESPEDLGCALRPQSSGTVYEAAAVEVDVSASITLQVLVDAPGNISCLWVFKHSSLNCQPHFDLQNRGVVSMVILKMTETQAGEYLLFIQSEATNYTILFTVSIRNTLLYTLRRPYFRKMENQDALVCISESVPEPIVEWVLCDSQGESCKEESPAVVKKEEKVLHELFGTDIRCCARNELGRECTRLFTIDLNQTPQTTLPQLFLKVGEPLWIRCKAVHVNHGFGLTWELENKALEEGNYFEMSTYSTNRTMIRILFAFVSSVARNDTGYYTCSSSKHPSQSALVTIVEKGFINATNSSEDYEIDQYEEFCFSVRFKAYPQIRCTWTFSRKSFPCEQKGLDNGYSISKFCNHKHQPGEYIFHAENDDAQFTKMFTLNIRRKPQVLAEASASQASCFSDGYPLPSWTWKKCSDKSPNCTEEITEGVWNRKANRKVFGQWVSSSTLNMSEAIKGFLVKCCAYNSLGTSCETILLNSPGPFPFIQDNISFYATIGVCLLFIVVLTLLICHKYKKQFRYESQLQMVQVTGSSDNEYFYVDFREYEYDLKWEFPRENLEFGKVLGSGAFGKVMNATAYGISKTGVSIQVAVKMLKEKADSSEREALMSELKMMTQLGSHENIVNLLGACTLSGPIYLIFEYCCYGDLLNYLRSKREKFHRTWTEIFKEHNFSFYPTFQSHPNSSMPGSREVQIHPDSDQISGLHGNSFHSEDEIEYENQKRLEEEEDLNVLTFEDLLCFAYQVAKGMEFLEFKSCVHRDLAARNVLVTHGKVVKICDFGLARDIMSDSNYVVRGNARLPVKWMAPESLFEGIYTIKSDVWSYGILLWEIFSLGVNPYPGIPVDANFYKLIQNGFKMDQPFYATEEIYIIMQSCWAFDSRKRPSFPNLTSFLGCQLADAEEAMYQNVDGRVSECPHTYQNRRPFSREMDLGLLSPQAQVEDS
As to the kind of experiment: In vitro kinase activity experiment, FLT3. The format is biochemical. To be noted: for inhibition at 0.5 µM: 40 min, inhibition rate of enzyme at 500 nM, measured by Eurofins, read-out: Kinase activity @ 500 nM (%) FLT3. In outline: as §1

Assay [1] deals with MOLM-13 cells (FLT3-ITD-/+). The assay can be described thus: Inhibition of cell proliferation by MTT experiment, MOLM-13. The format is cell-based, human. Particulars: Homo sapiens, MOLM-13; MTT, 72 h; read-out: IC50 value on cell proliferation inhibition, MOLM-13 FLT3-ITD-/+. The method, boiled down:
(§2)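 MTT assay in MV4-11, MOLM-13 (FLT3-ITD) and SET-2 (JAK2 V617F) cells at 10,000–15,000 cells/well in IMDM with 10% FBS. Cells are exposed to compound for 72 h at 37 °C, then to MTT for 1–3 h. IC50 is fitted from inhibition rates across concentrations.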

For assay [2], the system named is MV4-11 cells (FLT3-ITD+/+). As to the kind of experiment: Inhibition of cell proliferation by MTT experiment, MV4-11. The class given is cell-based, human. To be noted: Homo sapiens, MV4-11; MTT, 72 h; read-out: IC50 value on cell proliferation inhibition, MV4-11 FLT3-ITD+/+. The method, boiled down: as §2
For the next assay, the system named is SET-2 cells (JAK2 V617F). The assay can be described thus: Inhibition of cell proliferation by MTT experiment, SET-2. The format is cell-based. Particulars: Homo sapiens, SET-2; MTT, 72 h; read-out: IC50 value on cell proliferation inhibition, SET-2 (V617F). The method, boiled down: as §2

pIC50: −log10 of the molar value.

T2 sequence (O60674 whole entry): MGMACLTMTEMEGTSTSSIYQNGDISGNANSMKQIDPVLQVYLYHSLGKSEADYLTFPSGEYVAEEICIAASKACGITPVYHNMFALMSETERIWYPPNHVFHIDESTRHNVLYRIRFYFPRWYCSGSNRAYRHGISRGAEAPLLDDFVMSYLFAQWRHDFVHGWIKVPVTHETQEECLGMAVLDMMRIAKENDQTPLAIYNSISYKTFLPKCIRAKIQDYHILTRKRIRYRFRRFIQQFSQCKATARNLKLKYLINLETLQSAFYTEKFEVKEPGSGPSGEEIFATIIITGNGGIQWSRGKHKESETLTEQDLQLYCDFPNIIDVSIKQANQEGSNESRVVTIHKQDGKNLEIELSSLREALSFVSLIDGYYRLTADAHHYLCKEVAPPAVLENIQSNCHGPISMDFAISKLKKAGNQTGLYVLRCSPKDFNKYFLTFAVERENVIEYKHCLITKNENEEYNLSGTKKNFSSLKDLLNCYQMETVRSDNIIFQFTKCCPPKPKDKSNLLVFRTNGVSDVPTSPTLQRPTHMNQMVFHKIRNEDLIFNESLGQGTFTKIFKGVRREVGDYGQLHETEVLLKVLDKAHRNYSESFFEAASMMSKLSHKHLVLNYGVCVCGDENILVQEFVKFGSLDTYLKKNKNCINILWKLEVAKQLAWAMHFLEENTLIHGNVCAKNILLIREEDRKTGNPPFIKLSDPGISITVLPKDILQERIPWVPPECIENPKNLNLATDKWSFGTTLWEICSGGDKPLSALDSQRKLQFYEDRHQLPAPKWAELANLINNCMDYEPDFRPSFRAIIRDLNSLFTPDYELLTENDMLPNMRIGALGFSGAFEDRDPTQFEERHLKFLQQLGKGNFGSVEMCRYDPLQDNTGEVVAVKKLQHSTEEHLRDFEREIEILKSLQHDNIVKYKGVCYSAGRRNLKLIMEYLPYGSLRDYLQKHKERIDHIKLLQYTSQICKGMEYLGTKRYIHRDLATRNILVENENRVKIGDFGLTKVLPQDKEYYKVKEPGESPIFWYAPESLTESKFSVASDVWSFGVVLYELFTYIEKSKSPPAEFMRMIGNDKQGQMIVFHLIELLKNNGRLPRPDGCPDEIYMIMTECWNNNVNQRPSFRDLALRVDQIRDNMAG
T1 sequence (P23458 whole entry): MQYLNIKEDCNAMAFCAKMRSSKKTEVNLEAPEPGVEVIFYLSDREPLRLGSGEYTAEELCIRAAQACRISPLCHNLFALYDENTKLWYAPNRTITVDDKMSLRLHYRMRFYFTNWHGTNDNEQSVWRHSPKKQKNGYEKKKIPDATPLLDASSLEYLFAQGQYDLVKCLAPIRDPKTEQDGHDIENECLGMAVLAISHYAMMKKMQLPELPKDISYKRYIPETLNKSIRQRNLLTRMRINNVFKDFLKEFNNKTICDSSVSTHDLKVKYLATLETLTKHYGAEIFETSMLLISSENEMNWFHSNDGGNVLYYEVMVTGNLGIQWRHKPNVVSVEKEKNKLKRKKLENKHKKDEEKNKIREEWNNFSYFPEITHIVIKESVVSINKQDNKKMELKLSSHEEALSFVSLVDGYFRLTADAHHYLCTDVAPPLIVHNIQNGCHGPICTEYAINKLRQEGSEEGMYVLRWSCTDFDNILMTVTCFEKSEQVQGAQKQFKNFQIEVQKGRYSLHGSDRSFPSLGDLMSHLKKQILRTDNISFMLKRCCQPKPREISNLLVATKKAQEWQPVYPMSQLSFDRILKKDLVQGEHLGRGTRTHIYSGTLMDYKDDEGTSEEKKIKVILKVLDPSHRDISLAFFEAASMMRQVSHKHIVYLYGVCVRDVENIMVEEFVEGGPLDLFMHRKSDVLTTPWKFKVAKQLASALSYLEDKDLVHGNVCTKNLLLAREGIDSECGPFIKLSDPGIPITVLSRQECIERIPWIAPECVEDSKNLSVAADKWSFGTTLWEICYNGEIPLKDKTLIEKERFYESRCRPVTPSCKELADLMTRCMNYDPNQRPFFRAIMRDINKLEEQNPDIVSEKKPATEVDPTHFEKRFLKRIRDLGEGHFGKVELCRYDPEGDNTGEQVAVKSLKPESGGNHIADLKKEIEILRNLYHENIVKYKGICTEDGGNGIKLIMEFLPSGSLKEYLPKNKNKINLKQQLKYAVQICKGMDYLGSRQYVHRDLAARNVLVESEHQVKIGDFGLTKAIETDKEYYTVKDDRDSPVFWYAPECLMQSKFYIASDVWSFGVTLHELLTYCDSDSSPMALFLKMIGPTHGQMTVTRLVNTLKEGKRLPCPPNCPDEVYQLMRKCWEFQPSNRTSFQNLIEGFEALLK

Regarding `Cc1cnc(Nc2ccc(N3CCC(N(C)C)CC3)c(F)c2)nc1-c1cnn(C(C)C)c1` [CLJ-38, 5-methyl-N-(3-fluoro-4-(4-dimethylaminopiperidine-1-yl)phenyl)-4-(1-isopropyl-1H-pyrazole-4-yl) pyrimidine-2-amine], the pIC50 was 7.24 against JAK1; 8.70 at JAK2; 8.05 on FLT3; 6.00 to 7.00 in assay [1]; 7.00 to 8.00 in assay [2]; 6.00 to 7.00 in the assay with SET-2 cells (JAK2 V617F). Further, at JAK2, the “Kinase activity @ 500 nM (%) JAK2” value is on record as 93%. The inhibition at 0.5 µM at FLT3 was 72%.

As for `Cc1cnc(Nc2ccc(CCNC(=O)CCl)cc2)nc1-c1cnn(C(C)C)c1` [CLJ-86, N-(4-((4-(1-isopropyl-1H-pyrazole-4-yl)-5-methylpyrimidine-2-yl)amino)phenethyl)-2-chloroacetamide], on JAK2, the “Kinase activity @ 500 nM (%) JAK2” value turned out to be 37%. The inhibition at 0.5 µM at FLT3 was 45%. Further, the pIC50 is < 6.00 in assay [1], 6.00 to 7.00 in assay [2] and < 6.00 with SET-2 cells (JAK2 V617F).

For `Cc1cnc(Nc2ccc(CNC(=O)CCCl)cc2)nc1-c1cnn(C(C)C)c1` [CLJ-87, N-(4-((4-(1-isopropyl-1H-pyrazole-4-yl)-5-methylpyrimidine-2-yl)amino)benzyl)-3-chloropropanamide], the “Kinase activity @ 500 nM (%) JAK2” value at JAK2 is 39%. Further, the inhibition at 0.5 µM at FLT3 stood at 45%. Moreover, the pIC50 (in assay [1]; in assay [2]; in the assay on SET-2 cells (JAK2 V617F)) was < 6.00 in each case.

`Cc1cnc(Nc2ccc(CCNC(=O)CCCl)cc2)nc1-c1cnn(C(C)C)c1` [CLJ-88, N-(4-((4-(1-isopropyl-1H-pyrazole-4-yl)-5-methylpyrimidine-2-yl)amino)phenethyl)-3-chloropropanamide]: on JAK2, the “Kinase activity @ 500 nM (%) JAK2” value turned out to be 20%. On FLT3, the inhibition at 0.5 µM was 32%. In addition, the pIC50 (in assay [1]; in assay [2]; in the assay with SET-2 cells (JAK2 V617F)) was < 6.00 in each case.

On to `C=CS(=O)(=O)NCc1ccc(Nc2ncc(C)c(-c3cnn(C(C)C)c3)n2)cc1` [CLJ-89], for which the “Kinase activity @ 500 nM (%) JAK2” value on JAK2 stood at 99%. In addition, the inhibition at 0.5 µM at FLT3 came out at 47%. Further, the pIC50 was < 6.00 in assay [1], 6.00 to 7.00 in assay [2] and 7.00 to 8.00 in the assay on SET-2 cells (JAK2 V617F).

For the molecule `C=CS(=O)(=O)NCCc1ccc(Nc2ncc(C)c(-c3cnn(C(C)C)c3)n2)cc1` [CLJ-90], the “Kinase activity @ 500 nM (%) JAK2” value on JAK2 came to 97%. In addition, the inhibition at 0.5 µM at FLT3 came to 95%. In addition, the pIC50 in assay [1] was 7.00 to 8.00; in assay [2] it was 7.00 to 8.00; in the assay with SET-2 cells (JAK2 V617F) it was 6.00 to 7.00.

On to `CCS(=O)(=O)c1nn(C(C)C)cc1-c1nc(Nc2ccc(N3CCC(N(C)CCO)CC3)c(F)c2)ncc1C` [CLJ-92, 5-methyl-N-(3-fluoro-4-(4-N-hydroxyethyl-4-N-methylaminopiperidine-1-yl)phenyl)-4-(1-isopropyl-3-ethylsulfonyl-1H-pyrazole-4-yl) pyrimidine-2-amine], for which the “Kinase activity @ 500 nM (%) JAK2” value on JAK2 stood at 104%. Also, the inhibition at 0.5 µM at FLT3 was determined as 98%. The pIC50 was 7.00 to 8.00 in assay [1], 7.00 to 8.00 in assay [2] and 6.00 to 7.00 with SET-2 cells (JAK2 V617F).

For `Cc1cnc(Nc2ccc(NC(=O)[C@H]3CCCN3)c(F)c2)nc1-c1cnn(C(C)C)c1` [CLJ-93, (R)-2-((2-fluoro-4-((4-(1-isopropyl-1H-pyrazole-4-yl)-5-methylpyrimidine-2-yl)amino)phenyl)carbamoyl) pyrrolidine], the “Kinase activity @ 500 nM (%) JAK2” value on JAK2 is 100%. On FLT3, the inhibition at 0.5 µM is 97%. In addition, the pIC50 in assay [1] is 7.00 to 8.00; in assay [2] it was 7.00 to 8.00; in the assay on SET-2 cells (JAK2 V617F), 6.00 to 7.00.

For `Cc1cnc(Nc2ccc(NS(=O)(=O)c3ccc4c(c3)CC(=O)N4)c(F)c2)nc1-c1cnn(C(C)C)c1` [CLJ-95, N-(2-fluoro-4-((4-(1-isopropyl-1H-pyrazole-4-yl)-5-methylpyrimidine-2-yl)amino)phenyl)-2-oxoindoline-5-sulfonamide], the “Kinase activity @ 500 nM (%) JAK2” value at JAK2 worked out at 66%. In addition, the inhibition at 0.5 µM on FLT3 came to 67%. In addition, the pIC50 (in assay [1]; in assay [2]; in the assay with SET-2 cells (JAK2 V617F)) was 6.00 to 7.00 each time.

Turning to `Cc1cnc(Nc2ccc(NC(=O)[C@H]3CCCN3CC3CC3)c(F)c2)nc1-c1cnn(C(C)C)c1` [CLJ-96, (R)-1-(cyclopropylmethyl)-N-(2-fluoro-4-((4-(1-isopropyl-1H-pyrazole-4-yl)-5-methylpyrimidine-2-yl)amino)phenyl) pyrrolidine-2-carboxamide], the “Kinase activity @ 500 nM (%) JAK2” value on JAK2 stood at 73%. In addition, the inhibition at 0.5 µM at FLT3 amounted to 56%. Further, the pIC50 (in assay [1]; in assay [2]; with SET-2 cells (JAK2 V617F)) was 6.00 to 7.00 in each case.

Take `Cc1cnc(Nc2ccc(NC(=O)[C@H]3C[C@H](F)CN3)c(F)c2)nc1-c1cnn(C(C)C)c1` [CLJ-97, (2R,4S)-4-fluoro-N-(2-fluoro-4-((4-(1-isopropyl-1H-pyrazole-4-yl)-5-methylpyrimidine-2-yl)amino)phenyl) pyrrolidine-2-carboxamide]: the “Kinase activity @ 500 nM (%) JAK2” value at JAK2 turned out to be 99%. Besides, the inhibition at 0.5 µM on FLT3 was determined as 101%. Also, the pIC50 in assay [1] is 7.00 to 8.00; in assay [2], 7.00 to 8.00; in the assay on SET-2 cells (JAK2 V617F), 6.00 to 7.00.

Take `Cc1cnc(Nc2ccc(NC(=O)CN3CCS(=O)(=O)CC3)c(F)c2)nc1-c1cnn(C(C)C)c1` [CLJ-98, 2-(1,1-dioxthiomorpholine)-N-(2-fluoro-4-((4-(1-isopropyl-1H-pyrazol-4-yl)-5-methylpyrimidine-2-yl)amino)phenyl) acetamide]: the “Kinase activity @ 500 nM (%) JAK2” value at JAK2 is given as 97%. Moreover, the inhibition at 0.5 µM at FLT3 amounted to 95%. The values for the pIC50 (in assay [1]; in assay [2]; in the assay with SET-2 cells (JAK2 V617F)) were 7.00 to 8.00, 7.00 to 8.00 and 6.00 to 7.00, respectively.

Turning to `Cc1cnc(Nc2ccc(S(=O)(=O)NC3CC3)cc2)nc1-c1cnn(C(C)C)c1` [CLJ-99, N-cyclopropyl-4-((4-(1-isopropyl-1H-pyrazol-4-yl)-5-methylpyrimidine-2-yl)amino) benzenesulfonamide], the “Kinase activity @ 500 nM (%) JAK2” value at JAK2 stood at 100%. Moreover, at FLT3, the inhibition at 0.5 µM is 97%. The pIC50 in assay [1] was 7.00 to 8.00; in assay [2], 7.00 to 8.00; in the assay with SET-2 cells (JAK2 V617F), 6.00 to 7.00.

The values above are taken from patent US12428394B2, “2,4-disubstituted pyrimidine derivative, preparation method therefor and use thereof” (CHENGDU ZENITAR BIOMEDICAL TECHNOLOGY CO., LTD., priority 2019, dated 2025).
